In patent US20250073249A1, “STEROID COMPOUND, AND PREPARATION METHOD THEREFOR AND USE THEREOF” (SHANGHAI INSTITUTE OF MATERIA MEDICA, CHINESE ACADEMY OF …, priority 2022, published 2025):
Like-named read-outs stand apart in the source and are kept apart here.

Key:
AR(W741L) = target: T1, AR(W741L) (Homo sapiens, UniProt P10275, W742L); test: Mutant AR antagonistic activity test, W741L (reporter gene in HEK293 cells); type: cell-based; conditions: for IC50: HEK293 cells, DHT 10 nM, 24 hours, read-out: W741L IC50(nM) 1st gen AR antagonist resistant mutation
T1 construct: expressed in transfected cells; host or cells: HEK293
T1 sequence (P10275 1-920 W742L): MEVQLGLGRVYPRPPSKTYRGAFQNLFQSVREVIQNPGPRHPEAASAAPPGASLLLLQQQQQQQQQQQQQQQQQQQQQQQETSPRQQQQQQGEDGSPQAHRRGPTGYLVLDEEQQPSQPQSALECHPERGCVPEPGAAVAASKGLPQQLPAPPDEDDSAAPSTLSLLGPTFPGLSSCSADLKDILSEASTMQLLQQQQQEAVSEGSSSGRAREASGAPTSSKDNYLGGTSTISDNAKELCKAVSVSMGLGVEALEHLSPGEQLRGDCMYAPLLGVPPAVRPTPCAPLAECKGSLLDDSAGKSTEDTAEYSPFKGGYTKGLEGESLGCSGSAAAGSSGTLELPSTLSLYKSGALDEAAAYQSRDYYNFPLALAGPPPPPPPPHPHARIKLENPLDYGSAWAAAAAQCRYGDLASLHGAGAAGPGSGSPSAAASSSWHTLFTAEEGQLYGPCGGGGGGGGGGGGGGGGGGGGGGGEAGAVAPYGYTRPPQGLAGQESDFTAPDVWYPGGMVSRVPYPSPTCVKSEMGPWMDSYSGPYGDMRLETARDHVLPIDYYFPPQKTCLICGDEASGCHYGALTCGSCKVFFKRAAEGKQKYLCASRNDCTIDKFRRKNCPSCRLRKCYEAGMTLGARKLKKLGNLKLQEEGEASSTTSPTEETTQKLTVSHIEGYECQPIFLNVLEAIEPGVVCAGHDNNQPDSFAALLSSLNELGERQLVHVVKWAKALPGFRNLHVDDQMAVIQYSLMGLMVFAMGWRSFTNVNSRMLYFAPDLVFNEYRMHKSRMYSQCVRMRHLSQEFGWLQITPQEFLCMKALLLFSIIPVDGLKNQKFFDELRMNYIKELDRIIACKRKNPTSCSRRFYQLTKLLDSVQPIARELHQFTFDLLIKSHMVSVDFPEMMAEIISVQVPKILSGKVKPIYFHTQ
Description: HEK293 cells were cultured in DMEM supplemented with 10% FBS and 1% GlutaMax at 37° C. with 5% CO2. The day before transfection, the medium was changed to DMEM containing 10% charcoal-stripped FBS and 1% GlutaMax. […] The cell suspension was diluted with cell seeding solution, and the transfection reagent was added to achieve 500,000 cells/mL. Subsequently, 90 μL of cell suspension was seeded into each well of the assay plate. The next day, compounds were prepared: starting from 8 mM, 3-fold serial dilutions were performed in DMSO for a total of 8 points, then 500 nL was transferred to the compound plate using Echo. The compounds were then diluted with 40 μL of medium to 10× final concentration, and 10 μL was transferred to the cell plate and incubated at 37° C. for 30 minutes. Subsequently, 10 nL of DHT at a final concentration of 10 nM was transferred to each well of the assay plate using TECAN. After 24 hours of incubation, 100 μL of Steady-Glo was added to the assay plate and read on an Envision reader. Data were determined and analyzed using GraphPad Prism.

[1] = In vivo pharmacokinetics in rats after oral gavage; conditions: male SD rats, PO 10 mg/kg
Description: Male SD rats were randomly divided into 6 groups, 3 rats per group. The rats were fasted but not water-deprived for 12-14 h one day before dosing. The test samples were then dissolved in a solvent of 5% DMSO+30% PEG400+65% (0.5% MC) and administered by gavage at 10 mg/kg. Food was provided 4 h after dosing. Blood samples (0.10 mL) were collected via the orbital sinus at 0, 15, 30 min, 1, 2, 4, 6, 8, and 24 h, with EDTA-K2 as anticoagulant. Blood samples were placed on ice after collection and centrifuged to separate plasma within 30 minutes (centrifugation conditions: 5000 rpm, 10 minutes, 4° C.). 50.0 μL of plasma sample (taken from −80° C. freezer, thawed naturally at room temperature and vortexed for 30 seconds) was added to a 1.5 mL centrifuge tube, followed by addition of 500 μL internal standard solution (methanol (TEDIA, HPLC grade), acetonitrile (TEDIA, HPLC grade), formic acid (FA, ACROS ORGANICS, HPLC grade), water was laboratory-made ultrapure water (100.0 ng·mL−1)). The mixture was vortexed for 60 seconds and centrifuged for 3 minutes (centrifugal force 12000 rpm). 100 μL of the supernatant was transferred to a 96-well injection plate containing an equal volume of water, mixed by shaking, and analyzed by LC-MS/MS with an injection volume of 10 μL. The data acquisition and control system software was Analyst 1.5.1 software (Applied Biosystem). The chromatographic sample peaks were integrated automatically. The ratio of sample peak area to internal standard peak area was used as an indicator for regression with sample concentration.
The pharmacokinetic parameters of representative compounds of the present invention were tested in male SD rats after oral gavage administration at 10 mg/kg according to the above conventional method to examine the pharmacokinetic characteristics of the compounds of the present invention in rats.

ACE2 = ACE2 mRNA expression in A549 cells (qPCR); type: cell-based
TMPRSS2 = TMPRSS2 mRNA expression in A549 cells (qPCR); type: cell-based
[2] = 10 μM, 1 nM DHT, 48 h, Blank = 1

SMILES | IC50 (AR(W741L)) [nM] | Cmax [1] [ng/mL] | Kel [1] [h⁻¹] | MRTPO [1] [h] | T1/2 [1] [h] | tmax [1] [h] | AUC(0-inf) ([1]; rat, plasma) [ng·h/mL] | AUC(0-t) ([1]; rat, plasma) [ng·h/mL] | W741L antagonistic activity, fold improvement compared to enzalutamide (AR(W741L); ratio to enzalutamide IC50) [fold] | Expression of ACE2 protein, in words (ACE2) | ACE2 mRNA level (ACE2; [2]) | Expression of TMPRSS2 protein, in words (TMPRSS2) | TMPRSS2 mRNA level (TMPRSS2; [2]) | Cmax ([1]; rat, plasma, read-out: Cmax) [ng/mL]
Cc1cn(C2=CCC3C4CC=C5C[C@@H](NC(=O)c6ccncc6)CC[C@]5(C)C4CC[C@]23C)cn1 (stereo partly drawn) [Compound 14, N-((3S,10R,13S)-10,13-dimethyl-17-(4-methyl-1H-imidazol-1-yl)-2,3,4,7,8,9,10,11,12,13,14,15-dodecahydro-1H-cyclopenta[a]phenanthren-3-yl)isonicotinamide] | 490 | 2670 | 0.252 | 5.12 | 2.80 | 2.17 | 24800 | 24800 | – | – | – | – | – | –
Cc1cn(C2=CCC3C4CC=C5C[C@@H](NC(=O)c6ccc(F)cc6)CC[C@]5(C)C4CC[C@]23C)cn1 (stereo partly drawn) [Compound 33, N-((3S,10R,13S)-17-(4-methyl-1H-imidazol-1-yl)-10,13-dimethyl-2,3,4,7,8,9,10,11,12,13,14,15-dodecahydro-1H-cyclopenta[a]phenanthren-3-yl)-4-fluorobenzamide] | 371 | 6431 | 0.214 | 6.03 | 3.28 | 4.00 | 69500 | 68900 | – | – | – | – | – | –
Cc1cn(C2=CCC3C4CC=C5C[C@@H](NC(=O)c6ccc(S(C)(=O)=O)cc6)CC[C@]5(C)C4CC[C@]23C)cn1 (stereo partly drawn) [Compound 35, N-((3S,10R,13S)-17-(4-methyl-1H-imidazol-1-yl)-10,13-dimethyl-2,3,4,7,8,9,10,11,12,13,14,15-dodecahydro-1H-cyclopenta[a]phenanthren-3-yl)-4-(methylsulfonyl)benzamide] | 259 | – | – | – | – | – | – | – | 4.0 | significantly downregulate | 0.102 | significantly downregulate | 0.394 | –
Cc1cn(C2=CCC3C4CC=C5C[C@@H](NC(=O)c6ccc(F)cc6F)CC[C@]5(C)C4CC[C@]23C)cn1 (stereo partly drawn) [Compound 37, N-((3S,10R,13S)-17-(4-methyl-1H-imidazol-1-yl)-10,13-dimethyl-2,3,4,7,8,9,10,11,12,13,14,15-dodecahydro-1H-cyclopenta[a]phenanthren-3-yl)-2,4-difluorobenzamide] | 413 | – | 0.124 | 10.0 | 6.02 | 6.00 | 24500 | 22500 | – | – | – | – | – | 1550
